# Results taken from patent publication US11980633B2, “Method for treating cancer using a combination of DNA-damaging agents and DNA-PK inhibitors” (Vertex Pharmaceuticals Incorporated, priority 2016, dated 2024).
# System: primary human tumors (esophageal, gastric)
# Assay: TCA: Compound B-1 with paclitaxel, primary tumors
# Format: cell-based
# Procedure: In both studies, cell viability was assessed after 6 days in culture. Statistical analysis of the combination matrix was performed to assess whether synergy, additivity, or antagonism of the combination treatments were observed.
# Materials: Primary patient samples (See Tables 16 and 17, below) were excised from mice when they reached 500 mg to 1000 mg in size and processed immediately, or after overnight shipment. Tumors were serially passaged by subcutaneous implantation of 50 mg to 150 mg fragments into the flanks of immunocompromised (nude) mice. Tumors were used within the first 5 or 7 passages.
# Tumor Chemosensitivity Assay (TCA): Primary tumor samples were grown and serially passaged in immunocompromised mice. Tumors were mechanically dissociated into small fragments (1 mm to 2 mm) with scalpels in phosphate buffered saline (PBS or RPMI) and centrifuged at 200×g for 5 minutes at room temperature in 50 mL centrifuge tubes. Samples were resuspended in 10 mL of cell dissociation reagent and enzymatically digested with mechanical agitation for 1 to 3 hours at 37° C., 5% CO2 to a single cell suspension. Ten mL of complete RPMI-1640 media was added to the cell mixture and pipetted up and down 4 to 5 times. The mixture was then passed through a 70 μm or 100 μm mesh strainer to remove undigested tumor. The filtrate was then centrifuged 200×g for 5 minutes at room temperature and resuspended in 20 mL complete RPMI-1640. This cell suspension was slowly layered onto 20 mL of room temperature Histopaque and centrifuged at 400×g for 15 minutes at room temperature without a brake. The interface was transferred to a new 50 mL centrifuge tube and 15 mL of complete RPMI-1640 was added. This suspension was centrifuged at 200×g at room temperature, and the resulting pellet was resuspended in 10 mL of complete PC-1 media, except for pancreatic tumors in which case Pancreatic Medium was used. Cells were diluted in Trypan blue, and viable cells that excluded the dye were counted. Only the larger, tumor cells were included in the cell count. Cells were diluted in complete PC-1 or Pancreatic media, as appropriate for the cells, and were plated at 15,000 to 20,000 cells per well in 100-135 μL in ultra-low attachment U-bottom plates.
# Compound Addition: For these studies, a 10 mM stock of the DNA-PK inhibitor (Compound B-1 or Compound B-2) was made in DMSO and used to add to cells from most tumors with HP D300 Digital Dispenser (Tecan US, Morrisville, NC, USA), or diluted into the appropriate media (PC-1 or pancreatic media) as a 5-10× stock and added to cells (OVX001 and ENX001, 005). PC-1, pancreatic media, and chemotherapeutics were also added so that final well volume was 150 μL. Doxorubicin was made as DMSO stock of 1 or 10 mM and added to cells for most tumors with HP D300 Digital Dispenser, or diluted into PC-1 as 5-10× stock and added to cells (OVX001 and ENX001, 005). Cisplatin (cis-diammine platinum(II), dichloride) was prepared fresh to 10 mM in warm (60° C.) distilled water and diluted in PC-1 as a 5-10× stock. […] Different starting concentrations, dose ranges, and number of doses were used for each experiment based on the response data available at the time.
# For bleomycin experiments, combinations with Compound B-1 at all concentrations were run in triplicate. A 6×3 matrix was designed on one plate, consisting of a 2-point concentration range of 0.73 μM and 2.2 μM Compound B-1 plus no treatment control, in 3 columns each of 6 wells. Bleomycin (plus ‘no treatment’ control) was added to 9 wells in rows of this plate. Similar 6×3 matrices were set up for additional agents with different starting concentrations for compound dilutions. For cisplatin experiments the starting concentration was 30 μM which was diluted 1:3. […] For doxorubicin hydrochloride experiments the starting concentration was 5 μM doxorubicin which was diluted 1:3. For gemcitabine experiments the starting concentration was 5 μM gemcitabine which was diluted 1:3. […]
smiles,measurement,setting,value
CNC(=O)c1ccnc2c([C@H](C)CNc3cc(-c4cnc(C)nc4)ncn3)cccc12 [Compound B-1],tumors that showed additivity,four of 5 tumors,80%
same,tumors that showed antagonism,one of 5 tumors,20%
same,Average Bliss score,"tumor ESX005, Esophageal",−3
same,Synergy/Additivity/Antagonism,"tumor ESX005, Esophageal",Additive (Values between 5 and −5 are considered additive)
same,Average Bliss score,"tumor ESX008, Esophageal",−5
same,Synergy/Additivity/Antagonism,"tumor ESX008, Esophageal",Antagonistic (less than −5 are considered antagonistic)
same,Average Bliss score,"tumor GAX001, Gastric",−1
same,Synergy/Additivity/Antagonism,"tumor GAX001, Gastric",Additive (Values between 5 and −5 are considered additive)
same,Average Bliss score,"tumor GAX007, Gastric",−4
same,Synergy/Additivity/Antagonism,"tumor GAX007, Gastric",Additive (Values between 5 and −5 are considered additive)
same,Average Bliss score,"tumor GAX027, Gastric",1
same,Synergy/Additivity/Antagonism,"tumor GAX027, Gastric",Additive (Values between 5 and −5 are considered additive)
